The source of these data is patent publication US8207347B2, “Pyridone derivatives as NK3 antagonists” (H. Lundbeck A/S, priority 2009, dated 2012).

The structures appear in SMILES notation.

Test system in one series: not given
Assay: not given
The conditions noted are these: Am. J. Psychiatry, 161, 2004, 975-984; cited from earlier work.
Take `CC(=O)N(C)C1(c2ccccc2)CCN(CCC[C@]2(c3ccc(Cl)c(Cl)c3)CCCN(C(=O)c3ccccc3)C2)CC1` [Osanetant, osanetant]: the “effect in clinical trials, in particular on positive symptoms of psychosis” value is given as “superior to placebo”.

The same series, now with this note: schizophrenics; Curr. Opion. Invest. Drug, 6, 717-721, 2005; cited from earlier work.
Take `CC[C@H](NC(=O)c1c(O)c(-c2ccccc2)nc2ccccc12)c1ccccc1` [talnetant]: the “effect on cognitive behaviour in clinical trials” value is given as “ameliorate the cognitive behaviour of schizophrenics”.

Test system in another series: not given
Assay: not given
The conditions noted are these: Nature reviews, 4, 967-975, 2005; cited from earlier work.
For `CC(=O)N(C)C1(c2ccccc2)CCN(CCC[C@]2(c3ccc(Cl)c(Cl)c3)CCCN(C(=O)c3ccccc3)C2)CC1` [Osanetant, osanetant], the bioavailability result is “poor”, the blood-brain barrier penetration result was “poor”, the clearance entry was “relatively high” and the solubility result is reported as “poor”.

Regarding `CC[C@H](NC(=O)c1c(O)c(-c2ccccc2)nc2ccccc12)c1ccccc1` [talnetant], the bioavailability result is “poor”, the blood-brain barrier penetration entry was “poor”, the clearance entry is listed as “relatively high” and the solubility entry is reported as “poor”.

For a further series, the target named is T1, human NK3 receptor (Homo sapiens, UniProt P29371).
T1 construct: expressed in transfected cells
T1 sequence (P29371 1-465): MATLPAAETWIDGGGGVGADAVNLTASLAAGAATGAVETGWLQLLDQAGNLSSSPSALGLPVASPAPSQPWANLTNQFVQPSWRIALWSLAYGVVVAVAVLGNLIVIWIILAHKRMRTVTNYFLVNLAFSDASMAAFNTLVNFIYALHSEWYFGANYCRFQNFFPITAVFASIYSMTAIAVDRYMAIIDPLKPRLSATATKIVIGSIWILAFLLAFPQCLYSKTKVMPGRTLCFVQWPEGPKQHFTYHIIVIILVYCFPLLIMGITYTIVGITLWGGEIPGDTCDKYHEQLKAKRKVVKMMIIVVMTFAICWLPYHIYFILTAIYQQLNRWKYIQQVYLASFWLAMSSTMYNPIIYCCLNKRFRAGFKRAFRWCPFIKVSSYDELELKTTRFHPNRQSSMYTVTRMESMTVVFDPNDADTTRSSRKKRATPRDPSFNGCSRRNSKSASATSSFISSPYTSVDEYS
The series can be described thus: NK3 receptor binding assay (filter-based competition binding, 3H-AE93103). Particulars: BHK cell membranes expressing human NK3 receptor; Ki from IC50 by Cheng Prusoff equation; read-out: Affinity (Ki/nM). As for the experimental part: BHK cells stably expressing the human NK3 receptor were seeded in harvesting plates in Dulbeccos MEM containing GlutaMax (862 mg/l), 1 mM sodium pyruvate, 10% fetal calf serum, 1% Pen/Strep, 1 mg/ml G418 and were grown at 34° C. in a humidified atmosphere containing 10% CO2. To increase receptor expression, 10 μM trichotatin A was added to the media 24 hours before harvest of the cells at a confluency of app 90%. Prior to the harvesting, the cells were washed twice with PBS without Mg^2+ of Ca^2+ and subsequently scrapped of in 10 ml PBS pr harvesting plate. The cells suspension were centrifuged at 1500×G in three minutes before resuspension in 15 mM Tris-HCl buffer pH 7.5 containing 2 mM MgCl2; 0.3 mM EDTA and 1 mM EGTA (buffer A). The cell suspension was homogenised and subsequently centrifuged at 40000×G in 30 minutes. The membrane-pellet was resuspended in buffer A containing 250 mM sucrose, aliquoted and stored at −80° C.
The assay is performed as a filter-based competition-binding in a 50 mM Tris pH 7.4 assay buffer containing 120 mM NaCl and 3 mM MnCl2. App 0.05 nM ^3H-AE93103 was mixed with test compounds before addition of 0.15 μg of a homogenised NK3 membrane preparation in a total volume of 300 μl. The assay plate is incubated for 90 min at RT before content of the wells is transferred using a cell-harvester to GF/C filter plates, which has been pretreated with 0.1% PEI. The filter is washed 3 times with 1 ml an ice-cold 50 mM Tris buffer, pH 7.4. The filter is dried and added scintillation liquid before the plate is counted in a topcounter 5 minutes pr well.
The total binding, which comprised less than 10% of added radioligand, was defined using assay buffer whereas the non-specific binding was defined in the presence of 1 μM SR142801. The non-specific binding constituted ˜10% of the total binding.
Data points are expressed in percent of the specific binding of ^3H-AE93103 and the […] (concentration causing 50% inhibition of ^3H-AE93103 specific binding) are determined by non-linear regression analysis using a sigmoidal variable slope curve fitting.
Regarding `CCCc1c(C(=O)N[C@H](c2cccc(F)c2)C2CCC2)c(C)n(-c2ccccc2)c(=O)c1Br` [Example 2f, 5-Bromo-2-methyl-6-oxo-1-phenyl-4-propyl-1,6-dihydro-pyridine-3-carboxylic acid [(S)-cyclobutyl-(3-fluoro-phenyl)-methyl]-amide], the Ki was found to be 90 nM.

For the compound `CCNn1c(C)c(C(=O)N[C@H](c2cccc(F)c2)C2CCC2)c(C)c(Br)c1=O` [Example 2c, 5-Bromo-1-ethylamino-2,4-dimethyl-6-oxo-1,6-dihydro-pyridine-3-carboxylic acid [(S)-cyclobutyl-(3-fluoro-phenyl)-methyl]-amide], the Ki was determined as 24 nM.

On to `CCCn1c(C)c(C(=O)N[C@H](c2cccc(F)c2)C2CCC2)c(C)c(Br)c1=O` [Example 2d, 5-Bromo-2,4-dimethyl-6-oxo-1-propyl-1,6-dihydro-pyridine-3-carboxylic acid [(S)-cyclobutyl-(3-fluoro-phenyl)-methyl]-amide], for which the Ki was determined as 30 nM.

As to `C#Cc1c(C)c(C(=O)N[C@H](c2cccc(F)c2)C2CCC2)c(C)n(-c2ccccc2)c1=O` [Example 3e, 5-Ethynyl-2,4-dimethyl-6-oxo-1-phenyl-1,6-dihydro-pyridine-3-carboxylic acid [(S)-cyclobutyl-(3-fluoro-phenyl)-methyl]-amide], the Ki came out at 240 nM.

Consider `CCCNn1c(C)c(C(=O)N[C@H](c2cccc(F)c2)C2CCC2)c(C)c(C#N)c1=O` [Example 3b, 5-Cyano-2,4-dimethyl-6-oxo-1-propylamino-1,6-dihydro-pyridine-3-carboxylic acid [(S)-cyclobutyl-(3-fluoro-phenyl)-methyl]-amide], for which the Ki is 22 nM.

Regarding `Cc1c(C(=O)N[C@H](c2cccc(F)c2)C2CCC2)c(C(F)(F)F)c(Cl)c(=O)n1-c1ccccc1` [Example 2m, 5-Chloro-2-methyl-6-oxo-1-phenyl-4-trifluoromethyl-1,6-dihydro-pyridine-3-carboxylic acid [(S)-cyclobutyl-(3-fluoro-phenyl)-methyl]-amide], the Ki turned out to be 24 nM.

As to `Cc1c(C(=O)N[C@H](c2cccc(F)c2)C2CCC2)c(C)n(Cc2ncco2)c(=O)c1C#N` [Example 3d, 5-Cyano-2,4-dimethyl-1-oxazol-2-ylmethyl-6-oxo-1,6-dihydro-pyridine-3-carboxylic acid [(S)-cyclobutyl-(3-fluoro-phenyl)-methyl]-amide], the Ki is 34 nM.

Regarding `CCc1c(C(=O)N[C@H](c2cccc(F)c2)C2CCC2)c(C)n(-c2ccccc2)c(=O)c1Br` [Example 2e, 5-Bromo-4-ethyl-2-methyl-6-oxo-1-phenyl-1,6-dihydro-pyridine-3-carboxylic acid [(S)-cyclobutyl-(3-fluoro-phenyl)-methyl]-amide], the Ki stood at 50 nM.

For `CCCn1c(C)c(C(=O)N[C@H](c2ccccc2Cl)C2CC2)c(C)c(Br)c1=O` [Example 1s, 5-Bromo-2,4-dimethyl-6-oxo-1-propyl-1,6-dihydro-pyridine-3-carboxylic acid [(S)-(2-chloro-phenyl)-cyclopropyl-methyl]-amide], the Ki amounted to 67 nM.

Take `Cc1c(C(=O)N[C@H](c2cccc(F)c2)C2CCC2)c(C(F)(F)F)c(Br)c(=O)n1-c1ccccc1` [Example 2g, 5-Bromo-2-methyl-6-oxo-1-phenyl-4-trifluoromethyl-1,6-dihydro-pyridine-3-carboxylic acid [(S)-cyclobutyl-(3-fluoro-phenyl)-methyl]-amide]: the Ki stood at 7 nM.

For the compound `CCCNn1c(C)c(C(=O)N[C@H](c2ccccc2)C2CCC2)c(C)c(Br)c1=O` [Example 1i, 5-Bromo-2,4-dimethyl-6-oxo-1-propylamino-1,6-dihydro-pyridine-3-carboxylic acid ((S)-cyclobutyl-phenyl-methyl)-amide], the Ki is 16 nM.

As to `Cc1c(C(=O)N[C@H](c2cccc(F)c2)C2CCC2)c(C)n(-c2ccccc2)c(=O)c1Br` [Example 2a, 5-Bromo-2,4-dimethyl-6-oxo-1-phenyl-1,6-dihydro-pyridine-3-carboxylic acid [(S)-cyclobutyl-(3-fluoro-phenyl)-methyl]-amide], the Ki is 52 nM.

As for `CCCn1c(C)c(C(=O)N[C@H](c2cc(F)cc(F)c2)C2CCC2)c(C)c(Br)c1=O` [Example 1ak, 5-Bromo-2,4-dimethyl-6-oxo-1-propyl-1,6-dihydro-pyridine-3-carboxylic acid [(S)-cyclobutyl-(3,5-difluoro-phenyl)-methyl]-amide], the Ki stood at 49 nM.

In the case of `CCCn1c(C)c(C(=O)N[C@H](c2ccccc2)C2CCC2)c(C)c(Br)c1=O` [Example 1z, 5-Bromo-2,4-dimethyl-6-oxo-1-propyl-1,6-dihydro-pyridine-3-carboxylic acid ((S)-cyclobutyl-phenyl-methyl)-amide], the Ki was 36 nM.
